Test results taken from PMC7031696 (Cell chemical biology, 2019).
Values after ≈ are worked out from the molar mass of the structure shown. Read-outs that look alike come from different tables or passages of the source.

What was measured:
[1] = tested on: Plasmodium falciparum 3D7-A10 parasites; experiment: Stage specificity assay (8-h exposure of synchronized stages, IC50^8h); type: cell-based; settings: for IC50: Plasmodium falciparum
[2] = tested on: asynchronous 3D7-A10 parasite cultures; experiment: Standard 72-h exposure asexual blood stage susceptibility assay (IC50^72h); type: cell-based, Plasmodium falciparum; settings: Plasmodium falciparum, 3D7, 72 h, read-out: Overall (72hr assay) Mean IC50 (IC50^72h)
[3] = physchem
[4] = 1.5 h, 500 μM, pH 7.4
[5] = tested on: 3D7-MR4 trophozoite parasite-infected RBCs; experiment: Metabolomic profiling (hydrophilic metabolite changes, UHPLC-MS); type: cell-based, Plasmodium falciparum

Cc1cc(Nc2ccc(OCc3ccccc3)cc2)nc2cc(O)ccc12 [MMV007181]
Ratio lowest IC50 8hr/IC50 72hr ([1]; 3D7-A10): 3.0 | killing in stage specificity assay ([1]; 8-h exposures, survival curves): incomplete killing at all asexual blood stages | IC50 ([1]; 3D7, read-out: Early rings IC50 (IC50^8h), 8-h exposure 0–8 hr, bound given in μM): > 25 µM | IC50 ([1]; 3D7, read-out: Early trophozoites Mean IC50 (IC50^8h), 8-h exposure 16–24 hr, 3D7-A10, survival at 60 h): 0.253 µM | IC50 ([1]; 3D7, read-out: Late rings IC50 (IC50^8h), 8-h exposure 8–16 hr, bound given in μM): > 25 µM | IC50 ([1]; 3D7, read-out: Late trophozoites Mean IC50 (IC50^8h), 8-h exposure 24–32 hr, 3D7-A10, survival at 60 h): 0.274 µM | IC50 ([1]; 3D7, read-out: Schizonts Mean IC50 (IC50^8h), 8-h exposure 32–40 hr, 3D7-A10, survival at 60 h): 0.57 µM | Stage of peak activity (Figure 6) ([1]; period when the parasite was most susceptible (lowest IC50^8h)): trophozoites | Peak Activity (Table S1) ([1]; stage(s) with the lowest IC50^8h): Trophs | IC50 [2]: 84.9 nM | solubility at 1.5 h ([3]; pH 7.4): > 100 µM | solubility at 1.5 h ([3]; pH 7.4, aqueous buffer, kinetic from dmso stock): 100 to 500 µM (≈ 35.6 to 178 µg/mL) | Ratio fil./std. (absorbance filtrate/standard) [4]: 0.69 | peptide levels (hemoglobin catabolism signature) ([5]; 10 × IC50^72h, 2.5 hr, trophozoites): decreased peptide levels | Log2(fold changes) 3-phosphoglycerate ([5]; metabolite 3-phosphoglycerate, log2 fold change): -0.1714 | Log2(fold changes) 4-Pyridoxic acid ([5]; metabolite 4-Pyridoxic acid, log2 fold change): -0.2247 | Log2(fold changes) 4-aminobutyrate ([5]; metabolite 4-aminobutyrate, log2 fold change): -0.0986 | Log2(fold changes) 4-phosphopantetheine ([5]; metabolite 4-phosphopantetheine, log2 fold change): 0.6961 | Log2(fold changes) 4-phosphopantothenate ([5]; metabolite 4-phosphopantothenate, log2 fold change): -0.6638 | Log2(fold changes) 5-aminopentanoic acid ([5]; metabolite 5-aminopentanoic acid, log2 fold change): -0.2294 | Log2(fold changes) 5-methyl-THF ([5]; metabolite 5-methyl-THF, log2 fold change): 0.0000 | Log2(fold changes) 5-phosphoribosyl-1-pyrophosphate ([5]; metabolite 5-phosphoribosyl-1-pyrophosphate, log2 fold change): 0.0000 | Log2(fold changes) 6-phospho-D-gluconate ([5]; metabolite 6-phospho-D-gluconate, log2 fold change): -0.1453 | Log2(fold change) HVDD ([5]; metabolite HVDD): -4.4739 | Log2(fold change) Hydroxyisocaproic acid ([5]; metabolite Hydroxyisocaproic acid): 0.0000 | Log2(fold change) IDP ([5]; metabolite IDP): -0.0045 | Log2(fold change) IMP ([5]; metabolite IMP): -0.1201 | Log2(fold change) Inositol ([5]; metabolite Inositol): 0.0000 | Log2(fold change) Isopentyl-PP ([5]; metabolite Isopentyl-PP): -0.4346 | Log2(fold change) L-arginino-succinate ([5]; metabolite L-arginino-succinate): -0.6665 | Log2(fold change) LD ([5]; metabolite LD): -0.1484 | Log2(fold change) Myristoyl/tetradecanoyl-CoA ([5]; metabolite Myristoyl/tetradecanoyl-CoA): 0.0000 | Log2(fold change) N-Acetyl-L-alanine ([5]; metabolite N-Acetyl-L-alanine): -0.3632 | Log2(fold change) N-acetyl-L-ornithine ([5]; metabolite N-acetyl-L-ornithine): -2.0310 | Log2(fold change) N-acetyl-glucosamine-1/6-phosphate ([5]; metabolite N-acetyl-glucosamine-1/6-phosphate): -0.0060 | Log2(fold change) N-acetyl-glutamate ([5]; metabolite N-acetyl-glutamate): 0.1987 | Log2(fold change) N-acetyl-glutamine ([5]; metabolite N-acetyl-glutamine): 0.1663 | Log2(fold change) N-carbamoyl-L-aspartate ([5]; metabolite N-carbamoyl-L-aspartate): -0.1286 | Log2(fold change) NAD+ ([5]; metabolite NAD+): -0.1335 | Log2(fold change) NADH ([5]; metabolite NADH): 2.9716 | Log2(fold change) NADP+ ([5]; metabolite NADP+): -0.2177 | Log2(fold change) NADPH ([5]; metabolite NADPH): 2.7260 | Log2(fold change) O-acetyl-L-serine ([5]; metabolite O-acetyl-L-serine): -0.0650 | Log2(fold change) Octoluse 8/1P ([5]; metabolite Octoluse 8/1P): -0.2583 | Log2(fold change) Octoluse Bisphosphate ([5]; metabolite Octoluse Bisphosphate): -0.7020 | Log2(fold change) PD ([5]; metabolite PD): -3.3017 | Log2(fold change) PE ([5]; metabolite PE): -2.9801 | Log2(fold change) PEE ([5]; metabolite PEE): -2.9268 | Log2(fold change) PEEK ([5]; metabolite PEEK): -4.7351 | Log2(fold change) PVNF ([5]; metabolite PVNF): -4.5493 | Log2(fold change) Pyroglutamic acid ([5]; metabolite Pyroglutamic acid): 0.2482 | Log2(fold change) Pyrophosphate ([5]; metabolite Pyrophosphate): 0.0000 | Log2(fold change) Ribose-5-phosphate ([5]; metabolite Ribose-5-phosphate): -0.4059 | Log2(fold change) S-adenosyl-L-homocysteine ([5]; metabolite S-adenosyl-L-homocysteine): -0.1192 | Log2(fold change) S-adenosyl-L-methioninamine ([5]; metabolite S-adenosyl-L-methioninamine): -3.2130 | Log2(fold change) S-adenosyl-L-methionine ([5]; metabolite S-adenosyl-L-methionine): -0.1206 | Log2(fold change) S-methyl-5'-thioadenosine ([5]; metabolite S-methyl-5'-thioadenosine): 0.4702 | Log2(fold change) SD ([5]; metabolite SD): -0.6167 | Log2(fold change) SDL ([5]; metabolite SDL): 0.0000 | Log2(fold change) SID ([5]; metabolite SID): -0.9911 | Log2(fold change) Sedoheptulose bisphosphate ([5]; metabolite Sedoheptulose bisphosphate): -0.4907 | Log2(fold change) Thiamine pyrophosphate ([5]; metabolite Thiamine pyrophosphate): -0.0717 | Log2(fold changes) UDP-D-glucose ([5]; metabolite UDP-D-glucose, log2 fold change): 0.0982 | Log2(fold changes) UDP-D-glucuronate ([5]; metabolite UDP-D-glucuronate, log2 fold change): -0.0548 | Log2(fold changes) UDP-N-acetyl-glucosamine ([5]; metabolite UDP-N-acetyl-glucosamine, log2 fold change): -0.0365 | Log2(fold changes) UDP ([5]; metabolite UDP, log2 fold change): -0.2952 | Log2(fold changes) UMP ([5]; metabolite UMP, log2 fold change): -0.1123 | Log2(fold changes) UTP ([5]; metabolite UTP, log2 fold change): -0.0747 | Log2(fold change) hydroxyphenylpyruvate ([5]; metabolite hydroxyphenylpyruvate): 0.0000 | Log2(fold change) hydroxyproline/Aminolevulinate ([5]; metabolite hydroxyproline/Aminolevulinate): -0.1078 | Log2(fold change) hypoxanthine ([5]; metabolite hypoxanthine): 0.1087 | Log2(fold change) indole ([5]; metabolite indole): -0.0870 | Log2(fold change) inosine ([5]; metabolite inosine): -0.1121 | Log2(fold change) isoleucine ([5]; metabolite isoleucine): 0.0000 | Log2(fold change) lactate ([5]; metabolite lactate): -0.3282 | Log2(fold change) leucine ([5]; metabolite leucine): -0.3120 | Log2(fold change) lysine ([5]; metabolite lysine): -2.3197 | Log2(fold change) malate ([5]; metabolite malate): -0.7445 | Log2(fold change) maleic acid ([5]; metabolite maleic acid): -0.7914 | Log2(fold change) methionine ([5]; metabolite methionine): 0.1152 | Log2(fold change) myo-inositol ([5]; metabolite myo-inositol): -0.3555 | Log2(fold change) nicotinamide mononucleotide ([5]; metabolite nicotinamide mononucleotide): -0.2883 | Log2(fold change) nicotinate ([5]; metabolite nicotinate): 0.1126 | Log2(fold change) ornithine ([5]; metabolite ornithine): -0.1929 | Log2(fold change) orotate ([5]; metabolite orotate): -0.4250 | Log2(fold change) orotidine-5'-phosphate ([5]; metabolite orotidine-5'-phosphate): -1.5378 | Log2(fold change) oxaloacetate ([5]; metabolite oxaloacetate): -0.5706 | Log2(fold change) p-aminobenzoate ([5]; metabolite p-aminobenzoate): 0.0000 | Log2(fold change) p-hydroxybenzoate ([5]; metabolite p-hydroxybenzoate): 0.0981 | Log2(fold change) pantothenate ([5]; metabolite pantothenate): 0.1598 | Log2(fold change) phenylalanine ([5]; metabolite phenylalanine): -0.4038 | Log2(fold change) phenylpyruvate ([5]; metabolite phenylpyruvate): 0.0000 | Log2(fold change) phosphoenolpyruvate ([5]; metabolite phosphoenolpyruvate): 0.0294 | Log2(fold change) prephenate ([5]; metabolite prephenate): -0.1912 | Log2(fold change) proline ([5]; metabolite proline): -0.4365 | Log2(fold change) pyridoxine ([5]; metabolite pyridoxine): -0.1437 | Log2(fold change) pyruvate ([5]; metabolite pyruvate): -0.7096 | Log2(fold change) riboflavin ([5]; metabolite riboflavin): 0.3011 | Log2(fold change) ribose ([5]; metabolite ribose): -0.0087 | Log2(fold change) ribose-phosphate ([5]; metabolite ribose-phosphate): -0.7988 | Log2(fold change) ribulose-5-phosphate ([5]; metabolite ribulose-5-phosphate): -0.4319 | Log2(fold change) serine ([5]; metabolite serine): -0.2012 | Log2(fold change) sn-glycerol-3-phosphate ([5]; metabolite sn-glycerol-3-phosphate): 0.0673 | Log2(fold change) succinate/Methylmalonic acid ([5]; metabolite succinate/Methylmalonic acid): -0.1908 | Log2(fold change) succinyl-CoA/methylmalonyl-CoA ([5]; metabolite succinyl-CoA/methylmalonyl-CoA): 0.0000 | Log2(fold change) taurine ([5]; metabolite taurine): 0.0434 | Log2(fold change) thiamine ([5]; metabolite thiamine): -0.2929 | Log2(fold change) threonine/homoserine ([5]; metabolite threonine/homoserine): -0.5619 | Log2(fold change) thymidine ([5]; metabolite thymidine): 0.0000 | Log2(fold changes) thymine ([5]; metabolite thymine, log2 fold change): 0.0000 | Log2(fold changes) trehalose-6-Phosphate ([5]; metabolite trehalose-6-Phosphate, log2 fold change): 0.0000 | Log2(fold changes) tryptophan ([5]; metabolite tryptophan, log2 fold change): -0.4056 | Log2(fold changes) tyrosine ([5]; metabolite tyrosine, log2 fold change): -0.2656 | Log2(fold changes) uridine ([5]; metabolite uridine, log2 fold change): 0.0000
